Assay results taken from paper PMC8121435, “Cork-in-bottle mechanism of inhibitor binding to mammalian complex I” (Science Advances, 2021).

Experiments:
[1] = biological target: T1, P. denitrificans complex I (Paracoccus denitrificans, UniProt P29916+P29918+P29920); experiment: NADH:decylubiquinone oxidoreduction by purified P. denitrificans complex I; format: biochemical; settings: dQ, pH 6.5
T1 construct: Complex I was purified from P. denitrificans strain Pd1222; endogenous in cells; host or cells: P. denitrificans strain Pd1222
Description: (§1) All catalytic activity assays were conducted at 32°C in 96-well plates using a Molecular Devices Spectramax 384 plus plate reader. Catalysis was initiated by addition of 200 μM NADH and monitored at 340 and 380 nm (ε340–380 = 4.81 mM^−1 cm^−1). Linear rates were measured for all assays, inhibitors were added from dimethyl sulfoxide stock solutions as required, and inhibitor-insensitive rates (using either 1 μM piericidin A or 1.4 μM IACS-2858) were subtracted from each measured rate. Membrane samples were prepared as described previously ([17], [20], [59], [60]), diluted to 20 μg ml^−1 in 10 mM tris-SO4 (pH 7.5) and 250 mM sucrose, and supplemented with 3 μM horse heart cytochrome c (except for P. denitrificans, for which the activity is unaffected by the addition). Mouse, bovine, and yeast (Y. lipolytica) complex I were purified as described previously ([17], [20], [59]); diluted to 0.5 nM in 20 mM tris-HCl (pH 7.5), 0.15% asolectin, and 0.15% CHAPS; and assayed using either 200 μM dQ or 200 μM ubiquinone-1 (Sigma-Aldrich). Complex I was purified from P. denitrificans strain Pd1222 ([61]) and provided by O. D. Jarman (MRC Mitochondrial Biology Unit, University of Cambridge); it was assayed likewise but in 10 mM MES-HCl (pH 6.5), 25 mM NaCl, and 2 mM CaCl2. […]

complex I = experiment: NADH:ubiquinone-1 oxidoreduction in the presence of inhibitor; format: biochemical; settings: 200 μM ubiquinone-1
Description: as §1

What does the source list for `CS(=O)(=O)C1CCN(c2cccc(Cn3cc(-c4nc(-c5ccc(OC(F)(F)F)cc5)no4)ccc3=O)c2)CC1` [IACS-2858, 1-(3-(4-(Methylsulfonyl)piperidin-1-yl)benzyl)-5-(3-(4-(trifluoromethoxy)phenyl)-1,2,4-oxadiazol-5-yl)pyridin-2(1H)-one]?
IC50 [1]: ~110 µM; reduction of ubiquinone-1 in the presence of the inhibitor (complex I): No activity was observed
